In patent US9187762B2, “Compositions and methods comprising sequences having hydroxyphenylpyruvate dioxygenase (HPPD) activity” (PIONEER HI-BRED INTERNATIONAL, INC., priority 2010, dated 2015):

B1: GE010883: Sorghum bicolor variant HPPD with maize motif substitutions, SEQ ID NO: 459 (protein)
chain: MPPTPTTAAATGAAVAAASAEQAAFRLVGHRNFVRVNPRSDRFHTLAFHHVELWCADAASAAGRFSFGLGAPLAARSDLSTGNTAHASLLLRSGALAFLFTAPYAHGADAATASLPSFSAAEARRFAADHGLAVRAVALRVADAEDAFRASVAAGARPAFEPVELGLGFRLAEVELYGDVVLRYVSYPDDADASFLPGFVGVTSPGAADYGLRRFDHIVGNVPELAPAAAYMAGFTGFHEFAEFTAEDVGTTESGLNSMALANNAENVLLPLNEPVHGTKRRSQIQTYLDHHGGPGVQHIALASDDVLRTLREMQARSAMGGFEFLPPPLSEYYDGVRRCAGDVLTEAQIKECQELGVMVDRDDQGVLLQIFTKPVGDRPTLFLEIIQRIGCMEKDEKGQEYQKGGCGGFGKGNFGQLFKSIEDYEKSLEAKQAAAAQGS
modifications: HPPD variant
B2: SEQ ID NO: 1 (protein)
chain: MGPTPTAAAAGAAVAAASAAEQAAFRLVGHRNFVRFNPRSDRFHTLAFHHVELWCADAASAAGRFSFGLGAPLAARSDLSTGNSAHASLLLRSGSLSFLFTAPYAHGADAATAALPSFSAAAARRFAADHGLAVRAVALRVADAEDAFRASVAAGARPAFGPVDLGRGFRLAEVELYGDVVLRYVSYPDGAAGEPFLPGFEGVASPGAADYGLSRFDHIVGNVPELAPAAAYFAGFTGFHEFAEFTTEDVGTAESGLNSMVLANNSENVLLPLNEPVHGTKRRSQIQTFLDHHGGPGVQHMALASDDVLRTLREMQARSAMGGFEFMAPPTSDYYDGVRRRAGDVLTEAQIKECQELGVLVDRDDQGVLLQIFTKPVGDRPTLFLEIIQRIGCMEKDEKGQEYQKGGCGGFGKGNFSQLFKSIEDYEKSLEAKQAAAAAAAQGS
modifications: Zea mays

Tests used:
[1] = system: soybean plants; assay: Herbicide spray tests of transgenic HPPD soy plants (T1/T2) with multiple HPPD-inhibitor herbicides, visual injury; type: in vivo; settings: for Soybean Response (% Injury): Elite Line Nontransgenic, foliar, V1 stage; for Soybean Response (% Injury), Null: T1 soybean PHP45921A D0223903 SEQ ID NO: 3, null segregants; for Soybean Response (% Injury), Positive: T1 soybean PHP45921A D0223903 SEQ ID NO: 3, positive segregants
Procedure: T1 plants were evaluated for zygosity. Homozygous single-locus transgenic plants and their corresponding null segregants were identified and T2 true breeding seed was obtained from each. Plants were grown to the V1 to V2 growth stage and then sprayed with the commercial formulation of mesotrione, tembotrione, topramezone, and isoxaflutole. All treatments were applied with nonionic surfactant and ammonium sulfate in a spray volume of 374 L/ha. Multiple rates of each herbicide were applied so a response range could be used to compare the relative tolerance of the different herbicides as well as the relative tolerance of homozygous nulls and positives for each event. The herbicide response for individual treated plants was evaluated by comparing to untreated plants of similar genetic background. Herbicide response ratings were eight days after treatment. Visual injury was on a scale of 0 to 100% injury (0=no effect to 100=dead plant).
T1 soybean plants expressing D0223903 (SEQ ID NO: 3) driven by a synthetic promoter (as described in U.S. Pat. No. 6,072,050) were evaluated with qPCR for the presence of the transgene and null and positive segregants selected. Plants were sprayed at the V1 growth stage with the commercial formulations of mesotrione, tembotrione, topramezone, and isoxaflutole. Two rates of each herbicide were applied foliarly with nonionic surfactant and ammonium sulfate in a spray volume of 374 L/ha. The herbicide response for individual plants was determined by comparing to untreated plants of similar genetic background. Visual injury was on a scale of 0 to 100% injury (0=no effect to 100=dead plant).

[2] = system: S. bicolor HPPD; assay: ON/OFF rate ratio insensitivity parameters of HPPD with maize motif substitutions; type: biochemical, Sorghum bicolor
Procedure: [formula] Higher KD (reduced affinity or increased insensitivity) can be attained with a numerically smaller ON rate, a larger OFF rate or both. […] The ratio of the reaction rate with inhibitor to that without inhibitor during the 70 to 90 second interval of the reaction was termed the “ON rate ratio”. […] Incubations with the same concentrations of enzyme but no mesotrione were done in parallel. After 1 hr at room temperature, 5 to 10 ul of the enzyme-inhibitor complex was dispensed into the wells of the assay plate. Reactions were started with the addition of 290 to 295 ul of 25 mM Hepes, pH 7, 2 mM ascorbate, 10 uM FeSO4, 100 uM HPP and 50 nM HGD. The reactions were monitored at 320 nm for 12 min. Reaction velocity accelerates as inhibitor is released from the enzyme until a steady state is reached, during which the reaction velocity is constant. The ratio of the steady state rate in mixtures containing mesotrione (or other herbicidal inhibitor) to the initial velocity of mixtures lacking inhibitor is termed the “OFF rate ratio”. Another parameter to record is the time span required for the reactions with inhibitor to reach the steady state. […] It is not certain that the steady state attained in the OFF rate reactions actually represents an equilibrium where OFF rates are now equal to ON rates. Because substrate and inhibitors bind in the same site, the high concentration of substrate present may competitively trap the inhibitor and prevent it from binding again. To be sure that improvement in ON rates is being taken into account, the ON and OFF rate ratios were multiplied together and the product is termed the “insensitivity parameter”.

[3] = system: maize HPPD; assay: HPPD activity, coupled assay with HGD at 320 nm; substrate saturation kinetics (KM, kcat); type: biochemical; settings: maize HPPD, wt and variant
Excerpt: HPPD catalyzes the conversion of 4-hydroxyphenylpyruvate (HPP) to homogentisate. See, FIG. 1. […] However, the product of the ensuing reaction in tyrosine metabolism, maleylacetoacetate, absorbs strongly at 320 nm. Furthermore, the enzyme catalyzing that reaction is also a dioxygenase having similar mechanism and buffer requirements as HPPD, making homogentisate dioxygenase (HGD) an ideal partner in a coupled assay, as shown.
The HDG gene from Pseudomonas aeruginosa (Amaya (2004) Arch Biochem Biophys 421, 135-142) was cloned into pVER7062 and electroporated into E. coli strain BL21(DE3). The enzyme was produced by methods similar to those described for HPPD. The purified enzyme has a KM for homogentisate of 23 uM and a kcat of 100/sec, properties highly suited for instantly converting the homogentisate produced by HPPD to maleylacetoacetate.
HPPD activity was measured by placing an aliquot (e.g., 6 ul) of the substrate HPP at 50-fold the desired final concentration into the wells of a low UV-absorbing assay plate. Reactions were started by adding a mixture (e.g., 294 ul) containing 25 mM Hepes, pH 7, 2 mM ascorbate, 10 uM FeSO4, 1 to 100 uM HPP, 50 nM HGD and 5 to 240 nM HPPD. Absorbance at 320 nm was monitored continuously in a plate-reading spectrophotometer (Spectramax, Molecular Devices).
The catalytic performance of wild-type HPPD and variants generated by shuffling was assessed by determining the substrate saturation parameters. The Michaelis-Menten kinetics protocol of the Spectramax software was customized for HPP concentrations ranging from 3.33 uM to 100 uM, or up to 1 mM if required. Reaction rates were measured as described above for each concentration of HPP. The software returns values of KM and Vmax using the Lineweaver-Burke transformation of the Michaelis-Menten equation.

[4] = system: maize HPPD; assay: ON rate ratio, OFF rate ratio and insensitivity parameter with herbicidal HPPD inhibitors; type: biochemical; settings: maize HPPD
Excerpt: To devise a parameter for detecting changes in inhibitor binding affinity, KD, one can utilize the relationship between KD and the rates of binding and release of inhibitor to and from the enzyme. [formula] Higher KD (reduced affinity or increased insensitivity) can be attained with a numerically smaller ON rate, a larger OFF rate or both. […] The ratio of the reaction rate with inhibitor to that without inhibitor during the 70 to 90 second interval of the reaction was termed the “ON rate ratio”. […] Incubations with the same concentrations of enzyme but no mesotrione were done in parallel. After 1 hr at room temperature, 5 to 10 ul of the enzyme-inhibitor complex was dispensed into the wells of the assay plate. Reactions were started with the addition of 290 to 295 ul of 25 mM Hepes, pH 7, 2 mM ascorbate, 10 uM FeSO4, 100 uM HPP and 50 nM HGD. The reactions were monitored at 320 nm for 12 min. Reaction velocity accelerates as inhibitor is released from the enzyme until a steady state is reached, during which the reaction velocity is constant. The ratio of the steady state rate in mixtures containing mesotrione (or other herbicidal inhibitor) to the initial velocity of mixtures lacking inhibitor is termed the “OFF rate ratio”. Another parameter to record is the time span required for the reactions with inhibitor to reach the steady state. […] It is not certain that the steady state attained in the OFF rate reactions actually represents an equilibrium where OFF rates are now equal to ON rates. Because substrate and inhibitors bind in the same site, the high concentration of substrate present may competitively trap the inhibitor and prevent it from binding again. To be sure that improvement in ON rates is being taken into account, the ON and OFF rate ratios were multiplied together and the product is termed the “insensitivity parameter”. […] The variants in Table 9 were grouped according to the parameter in which they are improved compared to wild type. The sequence positions are numbered according to the wild-type maize amino acid sequence of SEQ ID 1. Some substitutions are effective in multiple contexts, as discussed in the next section.

Row | Molecule | Soybean Response (% Injury) ([1]; rate 26.25 g ai/ha) | Soybean Response (% Injury), Null ([1]; rate 26.25 g ai/ha) | Soybean Response (% Injury), Positive ([1]; rate 26.25 g ai/ha) | Soybean Response (% Injury) ([1]; rate 105 g ai/ha) | Soybean Response (% Injury) ([1]; rate 210 g ai/ha) | Soybean Response (% Injury), Null ([1]; rate 105 g ai/ha) | Soybean Response (% Injury), Null ([1]; rate 210 g ai/ha) | Soybean Response (% Injury), Positive ([1]; rate 105 g ai/ha) | Soybean Response (% Injury), Positive ([1]; rate 210 g ai/ha) | also measured
1 | CS(=O)(=O)c1cc(C(F)(F)F)ccc1C(=O)c1cnoc1C1CC1 [Isoxaflutole] | 72% | 78% | 5% | – | – | – | – | – | – | Soybean Response (% Injury) ([1]; rate 13.12 g ai/ha): 70%; Soybean Response (% Injury), Null ([1]; rate 13.12 g ai/ha): 80%; Soybean Response (% Injury), Positive ([1]; rate 13.12 g ai/ha): 15%
2 | CS(=O)(=O)c1ccc(C(=O)C2C(=O)CCCC2=O)c([N+](=O)[O-])c1 [Mesotrione] | – | – | – | 65% | 75% | 80% | 83% | 10% | 20% | –
3 | CS(=O)(=O)c1ccc(C(=O)C2C(=O)CCCC2=O)c(Cl)c1COCC(F)(F)F [Tembotrione] | – | – | – | 70% | 78% | 75% | 75% | 40% | 33% | –
4 | Cc1c(C(=O)c2cnn(C)c2O)ccc(S(C)(=O)=O)c1C1=NOCC1 [Topramezone] | 78% | 75% | 5% | – | – | – | – | – | – | Soybean Response (% Injury) ([1]; rate 52.5 g ai/ha): 78%; Soybean Response (% Injury), Null ([1]; rate 52.5 g ai/ha): 78%; Soybean Response (% Injury), Positive ([1]; rate 52.5 g ai/ha): 20%
5 | B1 | – | – | – | – | – | – | – | – | – | improvement of insensitivity vs native protein ([2]; mesotrione): 6.13 fold; improvement of insensitivity vs native protein ([2]; tembotrione): 7.71 fold
6 | B2 | – | – | – | – | – | – | – | – | – | Km [3]: 5.2 µM; kcat [3]: 201; OFF ratio ([4]; Mesotrione): 0.255; ON ratio ([4]; Mesotrione): 0.189; ON × OFF Value ([4]; Mesotrione): 0.048; OFF ratio ([4]; Tembotrione): 0.037; ON ratio ([4]; Tembotrione): 0.232; ON × OFF Value ([4]; Tembotrione): 0.0087
